{"source": "patent US6709676B2", "about": "“Extended release oral dosage composition” (Schering Corporation, priority 1999, dated 2004)", "tested_on": "allergic bronchospasm and cough", "assay": "in vivo studies of allergic bronchospasm and cough"}
{"compound": "Clc1ccc2c(c1)CCc1cccnc1C2=C1CCNCC1", "note": "[desloratadine, Desloratadine]", "values": [{"measurement": "effect on allergic bronchospasm and cough", "value": "inhibitory effect"}]}
